From US20250003970A1, “FRET ENZYMATIC SUBSTRATE AND USES THEREOF IN LUNG CANCER” (URTESTE S.A., priority 2021, published 2025)
Values joined by “and” are separate entries in the source; they are usually repeats but may differ in a detail not shown here. Identical values can stand only once. Starred links: 1 amine or outer side, 2 acyl side, 3 side chain; linkers in the order of their positions; H or OH if unused. Non-standard residues stand in square brackets, D forms with d. No end group written: not given here. Benzoyl(5-NH,2-NO2) = O=C(c1cc(N[*:1])ccc1[N+](=O)[O-])[*:2]; 2Abz = Nc1ccccc1C(=O)O

How the values were obtained:
Assay type in all cases: biochemical, human
[1] = tested on: urine samples taken from healthy persons; assay: Absorbance measurement of substrate hydrolysis in urine from healthy subjects; details: for absorbance (Results of absorbance analysis): healthy person, 405 nm, 37° C., 60 minutes, pH 8.0, triplicate
[2] = tested on: urine samples from patients with diagnosed cancers; assay: Selectivity of substrate cleavage in urine from patients with different cancers
Excerpt: Arabic numerals indicate the numbers of given cancer types. The samples tested for each type of cancer were derived from 20 different patients for each of the tested cancers. The results are mean values for given cancer types.
(§1) The activity of the novel compounds according to the invention was studied in a group of 20 subjects diagnosed with lung cancer using the representative compound according to the invention. […] The remaining compounds according to the invention are characterized by the analogous mechanism of action. For this purpose, the representative compound according to the invention, ABZ^1-Tyr^2-Ile^3-Phe^4-Arg^5-ANB^6-NH2, was dissolved in dimethyl sulfoxide (at a concentration of 0.5 mg/mL) and then 50 μL of the solution was mixed with 120 μL of a buffer (200 mM Tris-HCl, pH 8.0) and 80 μL of urine from a subject suffering from lung cancer. The measurement was performed on a 96-well plate designed for measuring absorbance and each sample was analysed in triplicate at the temperature of 37° C. The duration of the measurement was 60 minutes. During the measurement, the wavelength characteristic for the chromophore (ANB-NH2) being released was monitored at the wavelength 405 nm (range 380-430 nm).
Furthermore, the dependence of the cleavage selectivity of the substrate, i.e. the compound according to the invention, on the cancer being examined, was studied. […]

[3] = tested on: enzymatic activity specific to lung cancer in urine from a subject suffering from lung cancer; assay: Absorbance measurement of substrate hydrolysis in urine from subjects with lung cancer; details: for absorbance (Results of absorbance analysis): 405 nm, 37° C., 60 minutes, pH 8.0, triplicate
Description: as §1

ABZ-Tyr-Ile-Phe-Arg-ANB-NH2 ([2Abz]YIFR-{Benzoyl(5-NH,2-NO2)-NH2}) [chromogenic/fluorogenic FRET peptide substrate, ABZ = 2-aminobenzoic acid, ANB-NH2 = amide of 5-amino-2-nitrobenzoic acid]
absorbance (Results of absorbance analysis) ([1]; urine sample 1Z): 0.00000
absorbance (Results of absorbance analysis) ([1]; urine sample 2Z): 0.00000
absorbance (Results of absorbance analysis) ([1]; urine sample 3Z): 0.00000
absorbance (Results of absorbance analysis) ([1]; urine sample 4Z): 0.00000
absorbance (Results of absorbance analysis) ([1]; urine sample 5Z): 0.00000
absorbance (Results of absorbance analysis) ([1]; urine sample 6Z): 0.00000
absorbance (Results of absorbance analysis) ([1]; urine sample 7Z): 0.00000
absorbance (Results of absorbance analysis) ([1]; urine sample 8Z): 0.00000
absorbance (Results of absorbance analysis) ([1]; urine sample 9Z): 0.00000
absorbance (Results of absorbance analysis) ([1]; urine sample 10Z): 0.00000
absorbance (Results of absorbance analysis) ([1]; urine sample 11Z): 0.00000
absorbance (Results of absorbance analysis) ([1]; urine sample 12Z): 0.00000
absorbance (Results of absorbance analysis) ([1]; urine sample 13Z): 0.00000
absorbance (Results of absorbance analysis) ([1]; urine sample 14Z): 0.00000
absorbance (Results of absorbance analysis) ([1]; urine sample 15Z): 0.00000
absorbance (Results of absorbance analysis) ([1]; urine sample 16Z): 0.00000
absorbance (Results of absorbance analysis) ([1]; urine sample 17Z): 0.00000
absorbance (Results of absorbance analysis) ([1]; urine sample 18Z): 0.00000
absorbance (Results of absorbance analysis) ([1]; urine sample 19Z): 0.00000
absorbance (Results of absorbance analysis) ([1]; urine sample 20Z): 0.00000
absorbance (Results of absorbance analysis) ([1]; urine sample 21Z): 0.00000
absorbance (Results of absorbance analysis) ([1]; urine sample 22Z): 0.00000
absorbance (Results of absorbance analysis) ([1]; urine sample 23Z): 0.00000
absorbance (Results of absorbance analysis) ([1]; urine sample 24Z): 0.00000
absorbance (Results of absorbance analysis) ([1]; urine sample 25Z): 0.00000
increase in absorbance / hydrolysis ([1]; urine samples from healthy persons 1Z to 25Z): does not lead to an increase in absorbance
selectivity of hydrolysis of the substrate ([2]; lung cancer urine (sample 1) vs other neoplastic disease (samples 2-9), FIG. 3, mean values): selectivity of substrate cleavage in the case of urine from patients with lung cancer
cleavage / increase in absorbance ([2]; samples from patients with testicular, intestine, kidney, prostate, pancreatic, bile duct, lung, ovarian, and rectum cancer): is not subject to cleavage
cleavage of the substrate ([3]; all samples 1-50 from persons suffering from lung cancer): underwent cleavage
efficiency of cleavage of the substrate ([3]; samples 7 and 16 compared with samples 50 or 42 (FIG. 2)): less efficiently
absorbance (Results of absorbance analysis) ([3]; urine sample 7, lung cancer): 0.0015 and 0.0017 and 0.002
absorbance (Results of absorbance analysis) ([3]; urine sample 8, lung cancer): 0.0032 and 0.0031 and 0.0036
absorbance (Results of absorbance analysis) ([3]; urine sample 9, lung cancer): 0.026 and 0.0294 and 0.025
absorbance (Results of absorbance analysis) ([3]; urine sample 10, lung cancer): 0.0403 and 0.0738 and 0.056
absorbance (Results of absorbance analysis) ([3]; urine sample 11, lung cancer): 0.0195 and 0.019 and 0.0188
absorbance (Results of absorbance analysis) ([3]; urine sample 12, lung cancer): 0.0056 and 0.0068 and 0.0062
absorbance (Results of absorbance analysis) ([3]; urine sample 13, lung cancer): 0.063 and 0.0633 and 0.0632
absorbance (Results of absorbance analysis) ([3]; urine sample 14, lung cancer): 0.018 and 0.0176 and 0.0179
absorbance (Results of absorbance analysis) ([3]; urine sample 15, lung cancer): 0.015 and 0.0139 and 0.0146
absorbance (Results of absorbance analysis) ([3]; urine sample 16, lung cancer): 0.0015 and 0.0016 and 0.002
absorbance (Results of absorbance analysis) ([3]; urine sample 17, lung cancer): 0.0096 and 0.0095 and 0.0102
absorbance (Results of absorbance analysis) ([3]; urine sample 18, lung cancer): 0.0104 and 0.019 and 0.0156
absorbance (Results of absorbance analysis) ([3]; urine sample 20, lung cancer): 0.0443 and 0.0299 and 0.036
absorbance (Results of absorbance analysis) ([3]; urine sample 21, lung cancer): 0.0215 and 0.022 and 0.0256
absorbance (Results of absorbance analysis) ([3]; urine sample 22, lung cancer): 0.0301 and 0.0349 and 0.035
absorbance (Results of absorbance analysis) ([3]; urine sample 23, lung cancer): 0.0732 and 0.0483 and 0.065
absorbance (Results of absorbance analysis) ([3]; urine sample 25, lung cancer): 0.0703 and 0.0549 and 0.062
absorbance (Results of absorbance analysis) ([3]; urine sample 26, lung cancer): 0.149 and 0.1049 and 0.103
absorbance (Results of absorbance analysis) ([3]; urine sample 27, lung cancer): 0.1005 and 0.1078 and 0.106
absorbance (Results of absorbance analysis) ([3]; urine sample 28, lung cancer): 0.0613 and 0.0765 and 0.072
absorbance (Results of absorbance analysis) ([3]; urine sample 29, lung cancer): 0.0203 and 0.0218 and 0.025
absorbance (Results of absorbance analysis) ([3]; urine sample 30, lung cancer): 0.1595 and 0.1543 and 0.156
absorbance (Results of absorbance analysis) ([3]; urine sample 31, lung cancer): 0.0346 and 0.0306 and 0.036
absorbance (Results of absorbance analysis) ([3]; urine sample 32, lung cancer): 0.01457 and 0.0186 and 0.0159
absorbance (Results of absorbance analysis) ([3]; urine sample 33, lung cancer): 0.07 and 0.0625 and 0.0687
absorbance (Results of absorbance analysis) ([3]; urine sample 34, lung cancer): 0.0421 and 0.0243 and 0.036
absorbance (Results of absorbance analysis) ([3]; urine sample 35, lung cancer): 0.0402 and 0.0714 and 0.0632
absorbance (Results of absorbance analysis) ([3]; urine sample 36, lung cancer): 0.0046 and 0.0057 and 0.00498
absorbance (Results of absorbance analysis) ([3]; urine sample 37, lung cancer): 0.058 and 0.065 and 0.062
absorbance (Results of absorbance analysis) ([3]; urine sample 38, lung cancer): 0.0194 and 0.01741 and 0.0185
absorbance (Results of absorbance analysis) ([3]; urine sample 40, lung cancer): 0.0572 and 0.03085 and 0.0469
absorbance (Results of absorbance analysis) ([3]; urine sample 41, lung cancer): 0.0138 and 0.0163 and 0.0156
absorbance (Results of absorbance analysis) ([3]; urine sample 42, lung cancer): 0.1543 and 0.1976 and 0.175
absorbance (Results of absorbance analysis) ([3]; urine sample 43, lung cancer): 0.0366
